# Assay results reported in patent publication US20230092872A1, “Method for promoting wound healing” (Phagelux Canada Inc., priority 2021, published 2023).
# Test: Toxicological evaluation of leachable chemicals of BACTELIDE (margin of safety)
# Conditions: worst-case exposure: daily exposure, 100% bioavailability; leachables from BACTELIDE spray
# Method: ISO 10993-18:2020 and ISO/TS 21726:2019 leachable studies were performed for BACTELIDE. Solutions of BACTELIDE were collected for analysis via the spraying. The extracts were analyzed by gas chromatography-mass spectrometry (GC-MS) for volatile to semi-volatile compounds, by liquid chromatography-mass spectrometry (LC-MS) for semi-volatile to nonvolatile compounds, and by inductively coupled plasma mass spectrometry (ICP-MS) for elemental (metal and other) components. After analysis, results were reported based on the evaluation criteria listed in the results section below. […] 2-(N,N-Diethylamino)ethyldecyl maleate (CAS #184874-09-7) was the most abundant. Regarding LC-MS results, thirty-nine reportable compounds were identified in the test article extracts in positive ion mode. Glycerol dipentadecanoate (CAS #121957-69-5) was the most abundant. Thirty-six reportable compounds were identified in the test article extracts in negative ion mode. 3-[4-[[4-(2-Oxiranylmethoxy)phenyl]methyl]phenoxy]-1,2-propanediol didodecanoate (CAS #not given) was the most abundant. […]
# The MOS values for all chemicals (or groups of similar chemicals) and elements identified across the analytical methods ranged from 3 to 1340000. A few chemicals had calculated “near-1” (i.e. ≥1 but <10) MOS values. […] Their margins of safety were calculated using the ICH M7 less than 1 year TTC of 0.33. […]
structure (smiles),measurement,value
"OCC(O)COc1ccc(Cc2ccc(OCC3CO3)cc2)cc1 (stereo not shown) [3-[4-[[4-(2-Oxiranylmethoxy)phenyl]methyl]phenoxy]-1,2-propanediols]",MOS value (margin of safety),3
